The source of these data is US7994113B2, “βGBP, compositions comprising βGBP, and related methods and uses thereof” (priority 2007, dated 2011).

Read-outs that look alike come from different tables or passages of the source.

One data set deals with activated T cells. As to conditions: Rabinovich et al., 1997, 1998, 1999; cited from earlier work.
In data set [1] the test system is MCF10A mammary ductal cells. The data set can be described thus: Growth rate and Annexin V apoptosis of naïve MCF10A cells. The data set is classed as cell-based.
The subject of another data set is akt mRNA. The data set can be described thus: Northern blot analysis of akt mRNA. The data set is classed as cell-based. Conditions: for akt mRNA level: 30 nM Hu-r-βGBP.
Data set [2] concerns MCF-7 breast cancer cells. The experiment in a line: Growth rate of naïve MCF-7 cells. In kind it is cell-based.
Another data set has as its system ERK. The data set is classed as cell-based.
Another data set has as its system SW620 colon cancer cells. The experiment in a line: Growth rate of SW620 colon cancer cells with Hu-r-βGBP. The data set is classed as cell-based. How it is done: (§1) To confirm these observations three colon cancer cell lines were investigated, SW480, SW620 and LoVo. Cells were grown in culture and incubated with βGBP at varying concentrations. […] Concentrations as low as 1-2 nM have been observed as effective in inducing apoptosis (FIG. 6). It is possible that in some circumstances even lower concentrations of βGBP may be effective.
(§2) Cell culture: SW480, SW620 and LoVo colon cancer cells were grown in Leibowitz L-15 medium with 10% fetal bovine serum in sealed flasks at 37° C. Hu-r-βGBP was added 3 hrs after seeding cells at a concentration of 1 nM or 2 nM. Control cells were grown without βGBP.
(§3) Growth rates: Cell numbers were measured over a time course of 5 days. Cell numbers were assessed at 0, 1, 2, 3, 4, and 5 days for each cell type incubated in the presence of Hu-r-βGBP. Cell numbers were assessed in triplicate by counting in a haemocytometer as discussed above in Example 1 and compared with cell numbers for control cells grown without βGBP.

In the next data set the test system is MCF10A^CTx cells. The data set is classed as cell-based.
For another data set, the system named is class IA PI3K. The data set can be described thus: PI3 kinase assay: immunoprecipitated enzyme from treated cells, PIP3 by competitive ELISA. The data set is classed as cell-based. Conditions: for PI3K activity: 30 nM Hu-r-βGBP. A general note: ELISA stands for enzyme-linked immunosorbent assay.
Data set [3] deals with BT474 breast cancer cells. The data set can be described thus: Growth rate and apoptosis of BT474 cells treated with Hu-r-βGBP. In kind it is cell-based. As to conditions: Hu-r-βGBP 15 or 30 nM added at hour 3 after seeding. How it is done: (§4) Cell culture: BT474 cells were cultured in DMEM/F12 medium with 10% fetal calf serum (FCS) (Invitrogen, UK) and 20 μg/ml insulin (Sigma, UK); the SKBR3 cells were grown in DMEM medium (Invitrogen UK) plus 10% FCS. Cultures were incubated at 37° C. in a humidified atmosphere of 5% CO2 in air.
(§5) 1×10^5 cells were seeded per 25 cm^2 flask, or 3×10^5 per 75 cm^2 flask. Sufficient numbers of flasks were seeded in parallel to allow for individual flasks to be consumed in the process of monitoring cell numbers (i.e. growth rates), apoptosis, PI3K activity, akt mRNA levels, Akt protein levels and phosphorylated Akt (P-Akt) protein levels as discussed below. Unless otherwise indicated results correspond to one flask of cells.
(§6) Growth rates: Cells were removed from the flasks by trypsinisation and counted in a haemocytometer to assess cell numbers at time points of 1, 2, 3, 4, and 5 days for BT474 cells, SKBR3 cells, MCF10A^V12Ras cells and MCF10A^CTx cells. MCF10A cells were monitored at 1, 2, 3, and 4 days. Cell numbers were determined in triplicate. […]
(§7) Cytofluorimetry: Apoptosis was monitored using four criteria as outlined below. […]
(§8) Redistribution of plasma membrane phosphatidylserine was assessed using Annexin V-FITC (Pharmingen, San Diego, Calif.). […]
(§9) Caspase 3 activity was measured by cleavage of non fluorescent PhiPhiLux to a fluorescent product (OncoImmunin, Mass.). […]

Another data set concerns MCF10A^V12Ras cells. The experiment in a line: Growth rate and Annexin V apoptosis of MCF10A^V12Ras cells. In kind it is cell-based. Conditions: Hu-r-βGBP 15 or 30 nM added at hour 3.
In data set [4] the test system is SKBR3 breast cancer cells. The experiment in a line: Growth rate and apoptosis of SKBR3 cells treated with Hu-r-βGBP. In kind it is cell-based. Conditions: Hu-r-βGBP 15 or 30 nM added at hour 3 after seeding. How it is done:
as §4, §5, §6, §7, §8, §9

For the next data set, the system named is SW480 colon cancer cells. The experiment in a line: Growth rate of SW480 colon cancer cells with Hu-r-βGBP. In kind it is cell-based. The procedure: as §1, §2, §3
A further data set concerns MCF-7^CTx cells. The data set is classed as cell-based.
Data set [5] relates to breast cancer, ovarian cancer, oral cancer, prostate cancer and leukaemia cells. The experiment in a line: Screen of pro-apoptotic responses to βGBP in a range of cancer types. The data set is classed as cell-based. The procedure: As described above βGBP is known to inhibit growth and/or promote apoptosis in cells from a range of cancer types.
In breast cancer, ovarian cancer, oral cancer, prostate cancer and leukaemia cells tested for pro-apoptotic responses to βGBP, the effective dose in cell culture was 15-30 nM.

A further data set relates to Akt. The data set can be described thus: Western blot of phosphorylated (Ser473) Akt and total Akt protein. In kind it is cell-based. As to conditions: 30 nM Hu-r-βGBP. How it is done:
Western blot analysis: Cells were lysed in 50 mM Tris pH7.4. 150 mM NaCl, 1% TritonX-100, 1 mMPMSF, 2.5 μg/ml leupeptin, 1% aprotinin, 10 mM sodium fluoride, 1 mM sodium vanadate (Sigma, UK). 50 μg of protein were loaded onto 12% polyacrylamide gels. Phosphorylated Akt was detected using 1:1000 anti-phospho-Akt (Ser473) antibody (Cell Signalling Technology, Boston, Mass.) and total Akt1/2 protein was probed with 1:1000 anti-Akt1/2 (H136) (Santa Cruz, Santa Cruz, Calif.). Secondary antibodies conjugated to horseradish peroxidase (HRP) (GE Healthcare, UK) were used at 1:1000 dilution and visualised by enhanced chemiluminescence (GE Healthcare, UK). Actin (Sigma, UK) was used as a loading control.
(In western blotting, separated proteins are transferred to a membrane and probed.)

Another data set deals with LoVo colon cancer cells. The experiment in a line: Growth rate of LoVo colon cancer cells with Hu-r-βGBP. In kind it is cell-based. How it is done:
as §1, §2, §3

Data set [6] relates to ST4 (Human malignant T cell leukaemia) cells. The experiment in a line: ST4 tumour growth in SCID mice, subcutaneous βGBP. The data set is classed as in vivo. Conditions: SCID mice injected s.c. with 5×10^6 ST4 cells; Hu-r-βGBP s.c. day 1 to day 16. How it is done:
5×10^6 ST4 (Human malignant T cell leukaemia) cells were injected subcutaneously at day 0. Hu-r-βGBP was administered from day 1 to day 16 by subcutaneous injection.
Female SCID mice were housed under standard conditions. Mice were divided into four groups of four. At age 6 weeks 5×10^6 ST4 (Human malignant T cell leukaemia) cells were injected subcutaneously (day 0).
Hu-r-βGBP was obtained as described in Example 1.
βGBP was administered from day 1 to day 16 by individual daily subcutaneous injection. Each group of mice received a different dosage of βGBP. 0 ng/mouse (control), 20 ng/mouse, 200 ng/mouse or 400 ng/mouse
Tumour size was assessed at day 42 or day 90 by calliper measurement.

Setting [7] is: MCF10A, MCF10A^V12Ras and MCF10A^CTx cells.

“GAL-1: homodimers formed from βGBP, a complex with lectin-like characteristics”: in the data set on activated T cells, the “threshold concentration for apoptotic activity” value was 4 µg/mL.

Consider cholera toxin [reference compound], for which the figures for the cell proliferation entry in [1] and in data set [2] were “boosted” and “accelerated cell proliferation”, respectively. Further, the akt gene expression result in the data set on akt mRNA is recorded as “accentuated akt gene expression”. Moreover, the “akt mRNA levels” value in the data set with akt mRNA was “more markedly expressed”. The “active ERK levels” value in the data set on ERK is recorded as “raised active ERK levels”.

Consider “βGBP: Human recombinant β-galactoside binding protein expressed in E. coli; negative cell cycle regulator, anti-proliferative cytokine”, for which the “concentration effective in inducing apoptosis” value was 1 to 2 nM in the data set on SW620 colon cancer cells (SW620 cells, Hu-r-βGBP added 3 hrs after seeding, 5 days); 1 to 2 nM in the data set on SW480 colon cancer cells (SW480 cells, Hu-r-βGBP added 3 hrs after seeding, 5 days); 1 to 2 nM in the data set on LoVo colon cancer cells (LoVo cells, Hu-r-βGBP added 3 hrs after seeding, 5 days). Besides, the “effective concentration relative to other cancer cell lines (times lower)” value in the data set with SW620 colon cancer cells (SW620 colon cancer cells versus other cancer cell lines), in the data set on SW480 colon cancer cells (SW480 colon cancer cells versus other cancer cell lines) and in the data set with LoVo colon cancer cells (LoVo colon cancer cells versus other cancer cell lines) was 15 to 30 times in each case. In addition, the “response of cell proliferation to βGBP” value is “abrupt cell death after 2-3 cell replication cycles” in the data set on MCF10A^CTx cells; “minor effect” in data set [1] (naïve MCF10A cells, Hu-r-βGBP 15 or 30 nM added at hour 3); “abrupt cell death after 2-3 cell replication cycles” with MCF10A^V12Ras cells. The “apoptosis after inhibition of PI3K activity and loss of akt gene function” value in data set [1] (naïve normal-like MCF10A cells, 30 nM Hu-r-βGBP, Annexin V at day three) is given as “did not lead to apoptosis”. Also, the “akt mRNA level” value with akt mRNA (BT474 and SKBR3 cells, within one day from addition) is listed as “virtually undetectable”; with akt mRNA (setting [7]), “virtual absence of akt mRNA”. In addition, the akt gene expression entry in the data set on akt mRNA (MCF-7^CTx cells, 20 nM Hu-r-βGBP) is “negated”. Moreover, the “effect on cell growth” value in [2] (naïve MCF-7 cells, 20 nM Hu-r-βGBP added at hour 3) is on record as “growth inhibitory effect”. Besides, the PI3K activity result in the data set with class IA PI3K (BT474 and SKBR3 cells, already present at hour six, maintained throughout observation) was “downregulation of PI3K activity”; with class IA PI3K (MCF10A, MCF10A^V12Ras and MCF10A^CTx cells, delay from 6 to 24 hours with V12 Ras), “brought down and maintained PI3K activity below basal levels”. Besides, the “decrease of PI3K activity below basal levels at which akt gene expression was negated” value in the data set on class IA PI3K (MCF-7^CTx cells, 20 nM Hu-r-βGBP, 10 nM wortmannin or 20 nM LY294002 added at hour 3 from seeding) is listed as around 35%. For the same substance, the “effect on cell replication and cell death” value in data set [3] is listed as “virtually no effect on cell replication until, after 2-3 generation cycles, abrupt cell death was triggered”; in [4], “virtually no effect on cell replication until, after 2-3 generation cycles, abrupt cell death was triggered”. In addition, in the data set on MCF-7^CTx cells, the “cell death in response to βGBP” value was “succumbed to total death ahead of the naive counterparts”. The “effective dose in cell culture for pro-apoptotic responses” value in data set [5] was in the range of 15 to 30 nM. The “phosphorylated Akt and Akt protein” value with Akt (BT474 and SKBR3 cells, preceded the apoptotic process) is “loss of phosphorylated Akt, and loss of Akt protein”. In the data set on Akt (setting [7]), the “Akt function (phosphorylated Akt and total Akt protein)” value is given as “loss of Akt function”. The ERK phosphorylation result in the data set on ERK is listed as “no changes in ERK phosphorylation”. In addition, the appearance of tumours entry in data set [6] is on record as “totally prevent the appearance of tumours”.
